Measured values published in patent US11180573B2, “Extracellular matrix-producing composition using MAST4 gene and preparation method therefor” (priority 2017, dated 2021).

Test system: human primary chondrocytes
Assay: TGF-β1 treatment of human primary chondrocytes, expression by RT-PCR and Western blotting
Format: cell-based
Description: In detail, the human primary chondrocytes of Example 4-1 were treated with TGF-β1, and an expression level thereof was measured by RT-PCR as in Examples 1-2 and 1-3 and Western blotting.

[1] = co-treatment with TGF-β1 (5 ng/ml), compared with single treatment with TGF-β1, FIG. 9B
[2] = TGF-β1 5 ng/ml for 24 hours, 48 hours, or 72 hours, FIG. 9

| Molecule | Acan expression increased by TGF-β1 [1] | inhibitory effect on MAST4 expression (of TGF-β1) [1] | MAST4 expression [2] | expression of extracellular matrix factors [2] |
| --- | --- | --- | --- | --- |
| Cc1cccc(-c2[nH]c(CNc3ccccc3F)nc2-c2ccc3ncnn3c2)n1 [TEW-7197] | suppressed | decreased |  |  |
| TGF-β1: growth factor that reduces MAST4 expression in human chondrocytes |  |  | suppressed | increased |
